From paper PMC11203575, “The First In Vivo Study Shows That Gyrophoric Acid Changes Behavior of Healthy Laboratory Rats” (International Journal of Molecular Sciences, 2024) come the findings set out here.

For the assay, the target named is T1, human serum albumin (HSA) (Homo sapiens, UniProt P02768).
T1 construct: gene ALB; Albumin from human serum (A1887, Sigma Aldrich)
Kind of assay: intrinsic fluorescence quenching titration (Stern-Volmer), synchronous and 3D fluorescence. Type of assay: binding. As to conditions: read-out: KB × 10^6 (M^-1) (converted).

T1 sequence (P02768 25-609): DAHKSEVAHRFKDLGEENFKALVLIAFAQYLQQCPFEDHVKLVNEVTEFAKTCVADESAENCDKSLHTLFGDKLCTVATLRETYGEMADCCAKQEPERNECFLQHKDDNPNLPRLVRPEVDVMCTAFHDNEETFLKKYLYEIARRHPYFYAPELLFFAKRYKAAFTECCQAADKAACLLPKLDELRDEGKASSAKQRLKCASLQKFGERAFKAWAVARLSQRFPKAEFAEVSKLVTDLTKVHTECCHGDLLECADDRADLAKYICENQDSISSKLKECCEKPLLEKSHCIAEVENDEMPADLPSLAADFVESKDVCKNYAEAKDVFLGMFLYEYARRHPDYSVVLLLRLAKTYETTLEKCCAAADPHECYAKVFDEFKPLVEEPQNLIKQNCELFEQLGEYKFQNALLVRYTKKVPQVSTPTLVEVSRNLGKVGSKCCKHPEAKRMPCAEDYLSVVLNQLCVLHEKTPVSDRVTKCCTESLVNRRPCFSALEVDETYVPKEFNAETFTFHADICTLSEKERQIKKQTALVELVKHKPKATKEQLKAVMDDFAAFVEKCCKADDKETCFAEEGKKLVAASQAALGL

Take `Cc1cc(OC(=O)c2c(C)cc(OC(=O)c3c(C)cc(O)cc3O)cc2O)cc(O)c1C(=O)O` [GA, Gyrophoric acid]: the Kd was 559 nM.
